# Results as given in patent US10703764B2, “Benzopiperazine compositions as BET bromodomain inhibitors” (FORMA Therapeutics, Inc., priority 2013, dated 2020).
# What was measured:
# BRD4 BD1 = biological target: T1, BRD4 BD1 (Homo sapiens, UniProt O60885); assay: AlphaScreen binding assay, BRD4 Bromodomain 1
# T1 construct: made in house
# Procedure, shortened: (§1)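 Compound dilution series were mixed with His-tagged BRD4 bromodomain and biotinylated tetra-acetylated H4 (1-21) peptide at pH 7.3 (BD1 and peptide at 50 nM, BD2 and peptide at 100 nM). Donor and acceptor beads were then added, and plates were equilibrated at least 1 h before reading. IC50 values were fitted with a four-parameter logistic model.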
# BRD4 BD2 = biological target: T2, BRD4 BD2 (Homo sapiens, UniProt O60885); assay: AlphaScreen binding assay, BRD4 Bromodomain 2
# T2 construct: made in house
# Procedure, shortened: as §1
# MV4-11 cells = assay: Oncology cell growth assay (3-day proliferation, CellTiter-Glo); type: cell-based; settings: Homo sapiens, MV4-11, 72 h, AML cell line MV4-11, 72 hours, compounds grouped by IC50 range, read-out: MV4-11 IC50 (inhibition of proliferation, gIC50)
# Procedure, shortened: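 Compounds were serially diluted 3-fold in DMSO, giving final well concentrations from 10 down to 0.0045 μM. MV4-11 cells were then seeded at 3000 cells/well in RPMI 1640 with 10% FBS and incubated 72 hours. CellTiter-Glo signal was measured and gIC50 obtained by four-parameter logistic regression.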
Compound,IC50 (BRD4 BD1) [nM],IC50 (BRD4 BD2) [nM],IC50 (MV4-11 cells) [nM]
"CC(=O)N1c2ccc(-c3cnn(CCCO)c3)cc2N(C(=O)OC(C)C)C[C@@H]1C [Example I-137, (S)-isopropyl 4-acetyl-7-(1-(3-hydroxypropyl)-1H-pyrazol-4-yl)-3-methyl-3,4-dihydroquinoxaline-1(2H)-carboxylate]",100 to 1000,50 to 500,100 to 500
"CC(=O)N1c2ccc(-c3cnn(CCn4cncn4)c3)cc2N(C(=O)OC(C)C)C[C@@H]1C [Example I-139, (S)-isopropyl 7-(1-(2-(1H-1,2,4-triazol-1-yl)ethyl)-1H-pyrazol-4-yl)-4-acetyl-3-methyl-3,4-dihydroquinoxaline-1 (2H)-carboxylate]",100 to 1000,< 50,100 to 500
"CC(=O)N1c2ccc(-c3cnn(CC(C)(C)F)c3)cc2N(C(=O)OC(C)C)C[C@@H]1C [Example I-140, (S)-isopropyl 4-acetyl-7-(1-(2-fluoro-2-methylpropyl)-1H-pyrazol-4-yl)-3-methyl-3,4-dihydroquinoxaline-1(2H)-carboxylate]",100 to 1000,50 to 500,100 to 500
"CC(=O)N1c2ccc(-c3cnn(Cc4cc(C)no4)c3)cc2N(C(=O)OC(C)C)C[C@@H]1C [Example I-141, (S)-isopropyl 4-acetyl-3-methyl-7-(1-((3-methylisoxazol-5-yl)methyl)-1H-pyrazol-4-yl)-3,4-dihydroquinoxaline-1(2H)-carboxylate]",100 to 1000,< 50,100 to 500
"CC(=O)N1c2ccc(-c3cnn(Cc4cncs4)c3)cc2N(C(=O)OC(C)C)C[C@@H]1C [Example I-143, (S)-isopropyl 4-acetyl-3-methyl-7-(1-(thiazol-5-ylmethyl)-1H-pyrazol-4-yl)-3,4-dihydroquinoxaline-1(2H)-carboxylate]",100 to 1000,50 to 500,100 to 500
"CC(=O)N1c2ccc(-c3cnn(C4COC4)c3)cc2N(C(=O)OC(C)C)C[C@@H]1C [Example I-144, (S)-isopropyl 4-acetyl-3-methyl-7-(1-(oxetan-3-yl)-1H-pyrazol-4-yl)-3,4-dihydroquinoxaline-1(2H)-carboxylate]",< 100,< 50,100 to 500
"CC(=O)N1c2ccc(-c3cnn(CC(C)(C)F)c3)cc2N(C(=O)C2CC2)C[C@@H]1C [Example I-145, (S)-1-(4-(cyclopropanecarbonyl)-6-(1-(2-fluoro-2-methylpropyl)-1H-pyrazol-4-yl)-2-methyl-3,4-dihydroquinoxalin-1 (2H)-yl)ethanone]",100 to 1000,50 to 500,> 500
"CC(=O)N1c2ccc(-c3cnn(CCN(C)C)c3)cc2N(C(=O)C2CC2)C[C@@H]1C [Example I-146, (S)-1-(4-(cyclopropanecarbonyl)-6-(1-(2-(dimethylamino)ethyl)-1H-pyrazol-4-yl)-2-methyl-3,4-dihydroquinoxalin-1 (2H)-yl)ethanone]",1000 to 10000,50 to 500,> 500
"CC(=O)N1c2ccc(-c3cnn(Cc4nonc4C)c3)cc2N(C(=O)C2CC2)C[C@@H]1C [Example I-147, (S)-1-(4-(cyclopropanecarbonyl)-2-methyl-6-(1-((4-methyl-1,2,5-oxadiazol-3-yl)methyl)-1H-pyrazol-4-yl)-3,4-dihydroquinoxalin-1 (2H)-yl)ethanone]",100 to 1000,50 to 500,100 to 500
"CC(=O)N1c2ccc(-c3cnn(CC4CC4(F)F)c3)cc2N(C(=O)C2CC2)C[C@@H]1C (stereo partly drawn) [Example I-148, 1-((S)-4-(cyclopropanecarbonyl)-6-(1-((2,2-difluorocyclopropyl)methyl)-1H-pyrazol-4-yl)-2-methyl-3,4-dihydroquinoxalin-1(2H)-yl)ethanone]",100 to 1000,50 to 500,100 to 500
"CC(=O)N1c2ccc(-c3cnn(Cc4cc(C)no4)c3)cc2N(C(=O)C2CC2)C[C@@H]1C [Example I-149, (S)-1-(4-(cyclopropanecarbonyl)-2-methyl-6-(1-((3-methylisoxazol-5-yl)methyl)-1H-pyrazol-4-yl)-3,4-dihydroquinoxalin-1 (2H)-yl)ethanone]",100 to 1000,50 to 500,100 to 500
"CC(=O)N1c2ccc(-c3cnn(CCC(F)(F)F)c3)cc2N(C(=O)C2CC2)C[C@@H]1C [Example I-150, (S)-1-(4-(cyclopropanecarbonyl)-2-methyl-6-(1-(3,3,3-trifluoropropyl)-1H-pyrazol-4-yl)-3,4-dihydroquinoxalin-1(2H)-yl)ethanone]",100 to 1000,< 50,> 500
"CC(=O)N1c2ccc(-c3cnn(C4CNC4)c3)cc2N(C(=O)OC2CC(F)(F)C2)C[C@@H]1C [Example I-152, (S)-3,3-difluorocyclobutyl 4-acetyl-7-(1-(azetidin-3-yl)-1H-pyrazol-4-yl)-3-methyl-3,4-dihydroquinoxaline-1(2H)-carboxylate]",100 to 1000,< 50,100 to 500

# Next, values leading:
IC50 (BRD4 BD1) [nM],IC50 (BRD4 BD2) [nM],IC50 (MV4-11 cells) [nM],Compound
100 to 1000,50 to 500,100 to 500,"CC(=O)N1c2ccc(-c3cnn(C4CCNCC4)c3)cc2N(C(=O)OC2CCC(F)(F)CC2)C[C@@H]1C [Example I-153, (S)-4,4-difluorocyclohexyl 4-acetyl-3-methyl-7-(1-(piperidin-4-yl)-1H-pyrazol-4-yl)-3,4-dihydroquinoxaline-1(2H)-carboxylate]"
100 to 1000,< 50,100 to 500,"CC(=O)N1c2ccc(-c3cnn(C4CCCS(=O)(=O)C4)c3)cc2N(C(=O)OC2CCC2)C[C@@H]1C (stereo partly drawn) [Example I-158, cyclobutyl (3S)-4-acetyl-7-[1-(1,1-dioxo-16-thian-3-yl)-1H-pyrazol-4-yl]-3-methyl-1,2,3,4-tetrahydroquinoxaline-1-carboxylate]"
100 to 1000,50 to 500,100 to 500,"CC(=O)N1c2ccc(-c3cnn(C4CCCS(=O)(=O)C4)c3)cc2N(C(=O)OC2CCOCC2)C[C@@H]1C (stereo partly drawn) [Example I-161, oxan-4-yl (3S)-4-acetyl-7-[1-(1,1-dioxo-1λ^6-thian-3-yl)-1H-pyrazol-4-yl]-3-methyl-1,2,3,4-tetrahydroquinoxaline-1-carboxylate]"
100 to 1000,50 to 500,100 to 500,"CC(=O)N1c2ccc(-c3cnn(C4CCCS(=O)(=O)C4)c3)cc2N(C(=O)OC2CC(F)(F)C2)C[C@@H]1C (stereo partly drawn) [Example I-162, 3,3-difluorocyclobutyl (3S)-4-acetyl-7-[1-(1,1-dioxo-1λ^6-thian-3-yl)-1H-pyrazol-4-yl]-3-methyl-1,2,3,4-tetrahydroquinoxaline-1-carboxylate]"
100 to 1000,< 50,100 to 500,"CC(=O)N1c2ccc(-c3cnn(C4CC4)c3)cc2N(c2nn(C)c3c(F)cccc23)C[C@@H]1C [Example I-179, 1-[(2S)-6-(1-cyclopropyl-1H-pyrazol-4-yl)-4-(7-fluoro-1-methyl-1H-indazol-3-yl)-2-methyl-1,2,3,4-tetrahydroquinoxalin-1-yl]ethan-1-one]"
1000 to 10000,< 50,100 to 500,"CC(=O)N1c2ccc(-c3cnn(CCO)c3)cc2N(c2nn(C)c3c(F)cccc23)C[C@@H]1C [Example I-180, 1-[(2S)-4-(7-fluoro-1-methyl-1H-indazol-3-yl)-6-[1-(2-hydroxyethyl)-1H-pyrazol-4-yl]-2-methyl-1,2,3,4-tetrahydroquinoxalin-1-yl]ethan-1-one]"
100 to 1000,< 50,< 100,"CC(=O)N1c2ccc(-c3cnn(C4CCNCC4)c3)cc2N(c2nn(C)c3ccccc23)C[C@@H]1C [Example I-181, 1-[(2S)-2-methyl-4-(1-methyl-1H-indazol-3-yl)-6-[1-(piperidin-4-yl)-1H-pyrazol-4-yl]-1,2,3,4-tetrahydroquinoxalin-1-yl]ethan-1-one]"
100 to 1000,< 50,100 to 500,"CC(=O)N1c2ccc(-c3cnn(C4CCNCC4)c3)cc2N(c2nn(C)c3cnccc23)C[C@@H]1C [Example I-182, (S)-1-(2-methyl-4-(1-methyl-1H-pyrazolo[3,4-c]pyridin-3-yl)-6-(1-(piperidin-4-yl)-1H-pyrazol-4-yl)-3,4-dihydroquinoxalin-1(2H)-yl)ethanone]"
100 to 1000,< 50,100 to 500,"CC(=O)N1c2ccc(-c3cnn(C4CC4)c3)cc2N(c2nn(C)c3cccc(F)c23)C[C@@H]1C [Example I-183, 1-[(2S)-6-(1-cyclopropyl-1H-pyrazol-4-yl)-4-(4-fluoro-1-methyl-1H-indazol-3-yl)-2-methyl-1,2,3,4-tetrahydroquinoxalin-1-yl]ethan-1-one]"
100 to 1000,50 to 500,100 to 500,"CC(=O)N1c2ccc(-c3cnn(C4CC4)c3)cc2N(c2nn(C)c3ncccc23)C[C@@H]1C [Example I-184, 1-[(2S)-6-(1-cyclopropyl-1H-pyrazol-4-yl)-2-methyl-4-{1-methyl-1H-pyrazolo[3,4-b]pyridin-3-yl}-1,2,3,4-tetrahydroquinoxalin-1-yl]ethan-1-one]"
100 to 1000,< 50,< 100,"CC(=O)N1c2ccc(-c3cnn(C4CC4)c3)cc2N(c2nn(C)c3cnccc23)C[C@@H]1C [Example I-185, 1-[(2S)-6-(1-cyclopropyl-1H-pyrazol-4-yl)-2-methyl-4-{1-methyl-1H-pyrazolo[3,4-c]pyridin-3-yl}-1,2,3,4-tetrahydroquinoxalin-1-yl]ethan-1-one]"
